The test system of one assay is IL-1β. Nature of the assay: Effect on IL-1β expression in LPS-stimulated RAW 264.7 macrophages. The format is cell-based. The conditions noted are these: RAW 264.7 mouse macrophages, dosed at 50 μM and 100 μM, 100 ng/ml LPS stimulation, FIG. 1. The procedure:
RAW264.7 macrophages were seeded at a density of 100,000 cells/well in a 96-well plate in DMEM supplemented with 10% FBS and Penn/strep. 16 hours later, medium was aspirated and replaced with 90 μL/well of serum-free DMEM. Test compounds were brought up in 100% EtOH to a concentration of 100 mM and then diluted 1:100 in 100% FBS for a stock solution consisting of 1mM compound and 1% EtOH. These stock solutions were then diluted 1:10 in FBS supplemented with 1% EtOH to generate a 100 μM of the test compounds. 10 μL was then added to the RAW246.7 cells to generate final concentrations consisting of 10 μM of the fatty acid mycophenolate conjugate, along with vehicle only control. The compounds were allowed to pre-incubate for 2 hours before stimulation of 100 ng/ml LPS (10 μL of 1 μg/ml LPS was added to each well). Following 3 hours of LPS stimulation, cells were washed once in 1 ×PBS, aspirated dry, and flash frozen in liquid nitrogen. RNA was then isolated and converted to cDNA using the Cells to cDNA kit (Ambion) according to the manufacturer's protocol. IL-1β transcript levels were then measured using Taqman primer/probe assay sets (Applied Biosystems), normalized to GAPDH using the deltaCt method, and the data expressed relative to vehicle only control. FIG. 1 summarizes the effects of compounds I-1, I-2, I-5, and I-10 on the expression of IL-1β in RAW 264.7 mouse macrophages. All four compounds were dosed at 50 μM and 100 μM.

The subject of assay [1] is systemic lupus erythematosus patients. The conditions noted are these: mean dose of 1,328 mg/a day over a 1 or 2 year period; cited from earlier work.
Assay [2] concerns (NZB X NZW)F1 mouse model of systemic lupus erythematosus. The conditions noted are these: 200 mg/kg/day over a 6 week period; cited from earlier work.
Assay [3] has as its system SLE-prone MRLlpr/lpr mice. The conditions noted are these: 100 mg/kg in drinking water; cited from earlier work.

On to `CC/C=C\C/C=C\C/C=C\C/C=C\C/C=C\C/C=C\CCC(=O)NCCNC(=O)CC/C(C)=C/Cc1c(O)c2c(c(C)c1OC)COC2=O` [Compound I-1, (4Z,7Z,10Z,13Z,16Z,19Z)-N-(2((E)-6-(4-hydroxy-6-methoxy-7-methyl-3-oxo-1,3-dihydroisobenzofuran-5-yl)-4-methylhex-4-enamido)ethyl)docosa-4,7,10,13,16,19-hexaenamide], for which the “IL-1β expression (transcript level relative to vehicle only control)” value in the assay with IL-1β was “statistically significant decrease in IL-1β expression”.
Still for that read-out and setting: the value for `CC/C=C\C/C=C\C/C=C\C/C=C\C/C=C\C/C=C\CCC(=O)NCCOCCNC(=O)CC/C(C)=C/Cc1c(O)c2c(c(C)c1OC)COC2=O` [Compound I-2, (4Z,7Z,10Z,13Z,16Z,19Z)-N-(2-(2((E)-6-(4-hydroxy-6-methoxy-7-methyl-3-oxo-1,3-dihydroisobenzofuran-5-yl)-4-methylhex-4-enamido)ethoxy)ethyl)docosa-4,7,10,13,16,19-hexaenamide] was “statistically significant decrease in IL-1β expression”.
Take `CC/C=C\C/C=C\C/C=C\C/C=C\C/C=C\C/C=C\CCC(=O)NCCSSCCNC(=O)CC/C(C)=C/Cc1c(O)c2c(c(C)c1OC)COC2=O` [Compound I-5, (4Z,7Z,10Z,13Z,16Z,19Z)-N-(2-(2-(2-((E)-6-(4-hydroxy-6-methoxy-7-methyl-3-oxo-1,3-dihydroisobenzofuran-5-yl)-4-methylhex-4-enamido)ethyl)disulfanyl)ethyl)docosa-4,7,10,13,16,19-hexaenamide]: in the assay with IL-1β, the “IL-1β expression (transcript level relative to vehicle only control)” value is on record as “statistically significant decrease in IL-1β expression”.
`CC/C=C\C/C=C\C/C=C\C/C=C\C/C=C\CCCC(=O)NCCNC(=O)CC/C(C)=C/Cc1c(O)c2c(c(C)c1OC)COC2=O` [Compound I-10, (5Z,8Z,11Z,14Z,17Z)-N-(2-((E)-6-(4-hydroxy-6-methoxy-7-methyl-3-oxo-1,3-dihydroisobenzofuran-5-yl)-4-methylhex-4-enamido)ethyl)icosa-5,8,11,14,17-pentaenamide]: the “IL-1β expression (transcript level relative to vehicle only control)” value with IL-1β is reported as “statistically significant decrease in IL-1β expression”.
For `COc1c(C)c2c(c(O)c1C/C=C(\C)CCC(=O)OCCN1CCOCC1)C(=O)OC2` [mycophenolate mofetil], the disease flares result in assay [1] was “effective in reducing disease flares”. For the same compound, in assay [2], the autoimmunity and mortality entry is “able to suppress autoimmunity and mortality”. The “survival, C3 deposition in glomeruli, albuminuria and haematuria” value in assay [3] is “able to prolong survival, reduce the extent of deposition of C3 in glomeruli and reduce the occurrence of albuminuria and haematuria”.

(Values after patent US20110213028A1, “FATTY ACID MYCOPHENOLATE DERIVATIVES AND THEIR USES” (CATABASIS PHARMACEUTICALS, INC., priority 2010, published 2011).)
